For 25 compounds, IC50 results are on record in patent US20250320202A1, “PRMT5 INHIBITOR, PREPARATION METHOD THEREFOR, AND PHARMACEUTICAL USE THEREOF” (Abbisko Therapeutics Co., Ltd., priority 2022, published 2025).

SMILES strings stand for the structures.

The subject of one experiment is HCT116 MTAP wild-type cells. Briefly: Human colon cancer HCT116 cell proliferation inhibition test (CellTiter-Glo, 6 days), MTAP wild-type cells. The following applies: HCT-116, 144 h. The class given is cell-based. As to the method:
(§1) 1. HCT116 MTAP knockout and MTAP wild-type cells were plated in 96-well flat bottom plates, and cultured overnight with McCoy's 5A medium containing 10% fetal bovine serum+1% penicillin-streptomycin at 37° C. and 5% CO2.
(§2) 2. On the next day, the compound was dissolved with DMSO, diluted with DMSO and medium successively and transferred to the cell plate. The final concentration of the compound was 10 μM, the compound was diluted 4 times, with 9 concentration gradients, and DMSO control was added.
(§3) 3. Cells that have not been treated with the compound were removed. CellTiter-Glo Luminescent Cell Viability Assay (Promega) was used to detect cell viability, the operation was performed with reference to the package insert of the kit, and then the cell plate was placed on EnVision Multilabel Reader to detect the cold light signal.
(§4) 4. Meanwhile, the cell plate treated with the compound was cultured at 37° C. and 5% CO2 for 6 consecutive days.
(§5) 5. Then, CellTiter-Glo was also used to detect cell viability.
(§6) 6. Finally, the four-parameter dose-response curve module of GraphPad Prism v 9.2.0 software was used to plot the dose-response curve and calculate the IC50 for proliferation inhibition (unit: nM).
The compound `Cn1cc(N(C(=O)c2cc3c(cc2F)nc(N)c2cnn(C)c23)[C@@H]2COc3nc(C(F)(F)F)ccc32)cn1` [Example 2, (S)-4-amino-7-fluoro-1-methyl-N-(1-methyl-1H-pyrazol-4-yl)-N-(6-(trifluoromethyl)-2,3-dihydrofuro[2,3-b]pyridin-3-yl)-1H-pyrazolo[4,3-c]quinolin-8-carboxamide] registered an IC50 of 0.03 µM.
Compound `Cn1cc(N(C(=O)c2cc3c(cc2F)nc(N)c2cnn(C)c23)C2COc3cc(C(F)(F)F)ccc32)cn1` (centres unmarked) [Example 21, 4-amino-7-fluoro-1-methyl-N-(1-methyl-1H-pyrazol-4-yl)-N-(6-(trifluoromethyl)-2,3-dihydrobenzofuran-3-yl)-1H-pyrazolo[4,3-c]quinolin-8-carboxamide] gave an IC50 of 0.079 µM.
Same read-out and setting: under `Nc1nc2ccc(C(=O)N(CC3CC3)C3CCc4cc(C(F)(F)F)ccc43)cc2c2cnccc12` (centres unmarked) [Example 108, 5-amino-N-(cyclopropylmethyl)-N-(5-(trifluoromethyl)-2,3-dihydro-1H-inden-1-yl)benzo[c][2,6]naphthyridin-9-carboxamide] stands 1.42 µM; under `Nc1nc2ccc(C(=O)N(CC3CC3)C3COc4cc(C(F)(F)F)ccc43)cc2c2cnccc12` (centres unmarked) [Example 109, 5-amino-N-(cyclopropylmethyl)-N-(6-(trifluoromethyl)-2,3-dihydrobenzofuran-3-yl)benzo[c][2,6]naphthyridin-9-carboxamide], 0.824 µM.

Another experiment concerns HCT116 MTAP knockout cells. Put plainly: Human colon cancer HCT116 cell proliferation inhibition test (CellTiter-Glo, 6 days), MTAP knockout cells. It counts as cell-based. The settings on record: HCT-116, 144 h. As to the method:
as §1, §2, §3, §4, §5, §6
Compound `Nc1nc2ccc(C(=O)N(CC3CC3)[C@H]3CCc4nc(C(F)(F)F)ccc43)cc2c2cnccc12` [Example 1, (S)-5-amino-N-(cyclopropylmethyl)-N-(2-(trifluoromethyl)-6,7-dihydro-5H-cyclopenta[b]pyridin-5-yl)benzo[c][2,6]naphthyridin-9-carboxamide] displayed an IC50 of 0.792 µM.
Compound `Cn1cc(N(C(=O)c2cc3c(cc2F)nc(N)c2cnn(C)c23)[C@@H]2COc3nc(C(F)(F)F)ccc32)cn1` [Example 2, (S)-4-amino-7-fluoro-1-methyl-N-(1-methyl-1H-pyrazol-4-yl)-N-(6-(trifluoromethyl)-2,3-dihydrofuro[2,3-b]pyridin-3-yl)-1H-pyrazolo[4,3-c]quinolin-8-carboxamide] yielded an IC50 of 0.001 µM.
Still for that read-out and setting: the value for `Cn1ncc2c(N)nc3cc(F)c(C(=O)N(Cc4ncccn4)C4CCc5cc(C(F)(F)F)ccc54)cc3c21` (centres unmarked) [Example 7, 4-amino-7-fluoro-1-methyl-N-(pyrimidin-2-ylmethyl)-N-(5-(trifluoromethyl)-2,3-dihydro-1H-inden-1-yl)-1H-pyrazol[4,3-c]quinolin-8-carboxamide] was 0.057 µM; that for `Cn1cc(N(C(=O)c2cc3c(cc2F)nc(N)c2cnn(C)c23)C2CCc3cc(C(F)(F)F)ccc32)cn1` (centres unmarked) [Example 8, 4-amino-7-fluoro-1-methyl-N-(1-methyl-1H-pyrazol-4-yl)-N-(5-(trifluoromethyl)-2,3-dihydro-1H-inden-1-yl)-1H-pyrazolo[4,3-c]quinolin-8-carboxamide] was 0.004 µM.
`Cn1cc(N(C(=O)c2cc3c(cc2F)nc(N)c2cnn(C)c23)C2COc3cc(C(F)(F)F)ccc32)cn1` (centres unmarked) [Example 21, 4-amino-7-fluoro-1-methyl-N-(1-methyl-1H-pyrazol-4-yl)-N-(6-(trifluoromethyl)-2,3-dihydrobenzofuran-3-yl)-1H-pyrazolo[4,3-c]quinolin-8-carboxamide] gave an IC50 of 0.0008 µM. Against the preceding compound, the IC50 is about 5-fold lower.
On the same count and under the same terms, the value for `Cn1ncc2c(N)nc3cc(F)c(C(=O)N(Cc4cscn4)C4CCc5cc(C(F)(F)F)ccc54)cc3c21` (centres unmarked) [Example 95, 4-amino-7-fluoro-1-methyl-N-(thiazol-4-ylmethyl)-N-(5-(trifluoromethyl)-2,3-dihydro-1H-inden-1-yl)-1H-pyrazolo[4,3-c]quinolin-8-carboxamide] was 0.052 µM.
`Nc1nc2ccc(C(=O)N(CC3CC3)C3CCc4cc(C(F)(F)F)ccc43)cc2c2cnccc12` (centres unmarked) [Example 108, 5-amino-N-(cyclopropylmethyl)-N-(5-(trifluoromethyl)-2,3-dihydro-1H-inden-1-yl)benzo[c][2,6]naphthyridin-9-carboxamide] had an IC50 of 0.036 µM.
The same measure, in the same setting: the value for `Nc1nc2ccc(C(=O)N(CC3CC3)C3COc4cc(C(F)(F)F)ccc43)cc2c2cnccc12` (centres unmarked) [Example 109, 5-amino-N-(cyclopropylmethyl)-N-(6-(trifluoromethyl)-2,3-dihydrobenzofuran-3-yl)benzo[c][2,6]naphthyridin-9-carboxamide] was 0.015 µM; that for `Nc1nc2ccc(C(=O)N(CC3CC3)C3CCc4nc(C(F)(F)F)ccc43)cc2c2cnccc12` (centres unmarked) [Example 110, 5-amino-N-(cyclopropylmethyl)-N-(2-(trifluoromethyl)-6,7-dihydro-5H-cyclopenta[b]pyridin-5-yl)benzo[c][2,6]naphthyridin-9-carboxamide] was 0.116 µM.
`Nc1nc2ccc(C(=O)N(CC3CC3)C3COc4nc(C(F)(F)F)ccc43)cc2c2cnccc12` (centres unmarked) [Example 111, 5-amino-N-(cyclopropylmethyl)-N-(6-(trifluoromethyl)-2,3-dihydrofuro[2,3-b]pyridin-3-yl)benzo[c][2,6]naphthyridin-9-carboxamide] had an IC50 of 0.115 µM.
Regarding `Cn1ncc2c(N)nc3cc(F)c(C(=O)N(c4cscn4)C4CCc5cc(C(F)(F)F)ccc54)cc3c21` (centres unmarked) [Example 152, 4-amino-7-fluoro-1-methyl-N-(thiazol-4-yl)-N-(5-(trifluoromethyl)-2,3-dihydro-1H-inden-1-yl)-1H-pyrazolo[4,3-c]quinolin-8-carboxamide], half-maximal inhibition (IC50) was put at 0.004 µM.
The same measure, in the same setting: under `Cn1ncc2c(N)nc3cc(F)c(C(=O)N(CC(F)(F)F)C4COc5cc(C(F)(F)F)ccc54)cc3c21` (centres unmarked) [Example 157, 4-amino-7-fluoro-1-methyl-N-(2,2,2-trifluoroethyl)-N-(6-(trifluoromethyl)-2,3-dihydrobenzofuran-3-yl)-1H-pyrazolo[4,3-c]quinolin-8-carboxamide] stands 0.139 µM; under `Nc1nc2ccc(C(=O)N(c3ncns3)[C@@H]3CCc4cc(C(F)(F)F)ccc43)cc2c2cnccc12` [Example 191, (R)-5-amino-N-(1,2,4-thiadiazol-5-yl)-N-(5-(trifluoromethyl)-2,3-dihydro-1H-inden-1-yl)benzo[c][2,6]naphthyridin-9-carboxamide], 2.9 µM.
In the case of `Nc1nc2ccc(C(=O)N(CC3CC3)[C@H]3COc4nc(C(F)(F)F)ccc43)cc2c2cnccc12` [Example 196, (R)-5-amino-N-(cyclopropylmethyl)-N-(6-(trifluoromethyl)-2,3-dihydrofuro[2,3-b]pyridin-3-yl)benzo[c][2,6]naphthyridin-9-carboxamide], the IC50 came out at 1.53 µM. This IC50 lies about 1.9-fold lower than the previous one.
On to `Nc1nc2ccc(C(=O)N(CC3CC3)[C@@H]3CCc4nc(C(F)(F)F)ccc43)cc2c2cnccc12` [Example 199, (R)-5-amino-N-(cyclopropylmethyl)-N-(2-(trifluoromethyl)-6,7-dihydro-5H-cyclopenta[b]pyridin-5-yl)benzo[c][2,6]naphthyridin-9-carboxamide], for which inhibition was half-maximal at 0.134 µM (IC50).
The same measure, in the same setting: under `Cn1ncc2c(N)nc3cc(F)c(C(=O)N(c4cscn4)[C@@H]4CCc5cc(C(F)(F)F)ccc54)cc3c21` [Example 211, (R)-4-amino-7-fluoro-1-methyl-N-(thiazol-4-yl)-N-(5-(trifluoromethyl)-2,3-dihydro-1H-inden-1-yl)-1H-pyrazolo[4,3-c]quinolin-8-carboxamide] stands 0.004 µM.
The same measure, in the same setting: the value for `Nc1nc2ccc(C(=O)N(c3cscn3)[C@@H]3CCc4cc(C(F)(F)F)ccc43)cc2c2cnccc12` [Example 212, (R)-5-amino-N-(thiazol-4-yl)-N-(5-(trifluoromethyl)-2,3-dihydro-1H-inden-1-yl)benzo[c][2,6]naphthyridin-9-carboxamide] was 0.016 µM; that for `Cn1ncc2c(N)nc3ccc(C(=O)N(c4ncccn4)C4CCc5cc(C(F)(F)F)ccc54)cc3c21` (centres unmarked) [Example 214, 4-amino-1-methyl-N-(pyrimidin-2-yl)-N-(5-(trifluoromethyl)-2,3-dihydro-1H-inden-1-yl)-1H-pyrazolo[4,3-c]quinolin-8-carboxamide] was 0.325 µM; that for `COC[C@@H](C)N(C(=O)c1ccc2nc(N)c3ccncc3c2c1)[C@H]1CCc2cc(C(F)(F)F)ccc21` [Example 215, 5-amino-N-((R)-1-methoxypropan-2-yl)-N-((S)-5-(trifluoromethyl)-2,3-dihydro-1H-inden-1-yl)benzo[c][2,6]naphthyridin-9-carboxamide] was 6.93 µM.
The same measure, in the same setting: the value for `COC[C@@H](C)N(C(=O)c1ccc2nc(N)c3ccncc3c2c1)[C@@H]1CCc2cc(C(F)(F)F)ccc21` [Example 216, 5-amino-N-((R)-1-methoxypropan-2-yl)-N-((R)-5-(trifluoromethyl)-2,3-dihydro-1H-inden-1-yl)benzo[c][2,6]naphthyridin-9-carboxamide] was 0.94 µM.
Compound `COC[C@@H](C)N(C(=O)c1cc2c3c(c(N)nc2cc1F)COC3)[C@H]1CCc2cc(C(F)(F)F)ccc21` [Example 217, 4-amino-7-fluoro-N-((R)-1-methoxypropan-2-yl)-N-((S)-5-(trifluoromethyl)-2,3-dihydro-1H-inden-1-yl)-1,3-dihydrofuro[3,4-c]quinolin-8-carboxamide] had an IC50 of 2.36 µM.
As for `COC[C@@H](C)N(C(=O)c1cc2c3c(c(N)nc2cc1F)COC3)[C@@H]1CCc2cc(C(F)(F)F)ccc21` [Example 218, 4-amino-7-fluoro-N-((R)-1-methoxypropan-2-yl)-N-((R)-5-(trifluoromethyl)-2,3-dihydro-1H-inden-1-yl)-1,3-dihydrofuro[3,4-c]quinolin-8-carboxamide], the IC50 is 0.485 µM.
Still for that read-out and setting: under `C[C@H](c1ncccn1)N(C(=O)c1ccc2nc(N)c3ccncc3c2c1)[C@@H]1CCc2cc(C(F)(F)F)ccc21` [Example 222, 5-amino-N-((R)-1-(pyrimidin-2-yl)ethyl)-N-((R)-5-(trifluoromethyl)-2,3-dihydro-1H-inden-1-yl)benzo[c][2,6]naphthyridin-9-carboxamide] stands 0.217 µM; under `C[C@H](c1ncccn1)N(C(=O)c1cc2c3c(c(N)nc2cc1F)COC3)[C@@H]1CCc2cc(C(F)(F)F)ccc21` [Example 223, 4-amino-7-fluoro-N-((R)-1-(pyrimidin-2-yl)ethyl)-N-((R)-5-(trifluoromethyl)-2,3-dihydro-1H-inden-1-yl)-1,3-dihydrofuro[3,4-c]quinolin-8-carboxamide], 0.118 µM.
On the same count and under the same terms, under `C[C@@H](c1ncccn1)N(C(=O)c1cc2c3c(c(N)nc2cc1F)COC3)[C@@H]1CCc2cc(C(F)(F)F)ccc21` [Example 224, 4-amino-7-fluoro-N-((S)-1-(pyrimidin-2-yl)ethyl)-N-((R)-5-(trifluoromethyl)-2,3-dihydro-1H-inden-1-yl)-1,3-dihydrofuro[3,4-c]quinolin-8-carboxamide] stands 0.64 µM.
